Earlier results in US20170364630A1, “IDENTIFICATION OF CELLULAR ANTIMICROBIAL DRUG TABLETS THROUGH INTERACTOME ANALYSIS” (Vanderbilt University, priority 2014, published 2017).
In brackets after ≈: the same amount, converted by molar mass.

How the values were obtained:
calcium channel protein = conditions: Fish and Antzelevitch 2004
[1] = system: Ebola-related genes (MERTK, FURIN, TYRO3, CTSB, NADK, POLH, TAPT1); conditions: CMap data, FIG. 8
HIV-1 [2] = conditions: approximate value, Guendel et al. 2010; read-out: IC50, inhibitor of HIV-1
hepatitis C virus (HCV) = conditions: cell-based quantitative high-throughput screening, He et al. 2015; read-out: EC50, anti-HCV activity
human enterovirus 71 = conditions: human enterovirus 71-infected mice
[3] = system: poliovirus-infected HeLa cells
HIV-1 [4] = conditions: Szlavik et al. 2004
[5] = molecular target: HIV-1 reverse transcriptase (Human immunodeficiency virus type 1 group M subtype B, UniProt P04585); conditions: Tan et al. 1991; read-out: IC50 against the HIV-1 reverse transcriptase

Compound: CC[C@H]1[C@@H]2C[C@H]3[C@@H]4N(C)c5ccccc5[C@]45C[C@@H]([C@H]2[C@H]5O)N3[C@@H]1O [ajmaline]
- Concentration exerting comparable pharmacological activity by inhibiting calcium channel protein activity (calcium channel protein): ≤ 20 μM
- Up-regulated host genes following drug treatment [1]: MERTK, FURIN, TYRO3, FURIN, and CTSB

Compound: O=C1Cc2c([nH]c3ccc([N+](=O)[O-])cc23)-c2ccccc2N1 [alsterpaullone]
- IC50 (HIV-1 [2]): ~0.15 µM

Compound: CC1(C)S[C@@H]2[C@H](NC(=O)[C@H](NC(=O)N3CCNC3=O)c3ccccc3)C(=O)N2[C@H]1C(=O)O [azlocillin]
- Down-regulated host genes following drug treatment [1]: TAPT1 and TYRO3
- Up-regulated host genes following drug treatment [1]: NADK and POLH

Compound: Clc1ccc(Cn2c(CN3CCCC3)nc3ccccc32)cc1 [clemizole]
- EC50 (hepatitis C virus (HCV)): 7.15 µM

Compound: CN1CCCN(C(c2ccccc2)c2ccc(Cl)cc2)CC1 (stereo not drawn) [homochlorcyclizine]
- EC50 (hepatitis C virus (HCV)): 0.47 µM

Compound: O[C@H]1[C@H]2c3cc4c(cc3CN3CCC(=C[C@@H]1O)[C@H]23)OCO4 [lycorine]
- Effect on mortality of infected mice (human enterovirus 71): reduces mortality
- Effect on viral protein synthesis [3]: inhibits viral protein synthesis
- IC50, anti-HIV-1 activity in MT4 cells (HIV-1 [4]): 0.4 µg/mL (≈ 1.39 µM)

Compound: CN1C(C(=O)Nc2ccccn2)=C(O)c2ccccc2S1(=O)=O [piroxicam]
- Up-regulated host genes following drug treatment [1]: FURIN and MERTK

Compound: C[n+]1cc2c3c(ccc2c2ccc4cc5c(cc4c21)OCO5)OCO3 [sanguinarine nitrate]
- IC50 [5]: 150 to 451 µM
